Laboratory results as given in the kinase profiling compilation of Christmann-Franck et al. (2016).
Where “and” joins values, the source holds several entries; their conditions need not be identical. Equal values may be shown once.

Assays:
Assay in all cases: radiometric filter-binding kinase assay, Kinase HotSpot
Conditions in all cases: compound 0.5 µM; ATP 10 µM
ADRBK2 (human) = ADRBK2 (human) (UniProt P35626)
AURKB (human) = AURKB (human) (UniProt Q96GD4)
BMX (human) = BMX (human) (UniProt P51813)
CDK1 CCNA2 (human) = CDK1 CCNA2 (human) (UniProt P06493+P20248)
CDK9 CCNK (human) = CDK9 CCNK (human) (UniProt O75909+P50750)
CDK9 CCNT1 (human) = CDK9 CCNT1 (human) (UniProt P50750+O60563)
CHEK2 (human) = CHEK2 (human) (UniProt O96017)
CSK (human) = CSK (human) (UniProt P41240)
DAPK1 (human) = DAPK1 (human) (UniProt P53355)
DMPK (human) = DMPK (human) (UniProt Q09013)
EPHA4 (human) = EPHA4 (human) (UniProt P54764)
EPHA7 (human) = EPHA7 (human) (UniProt Q15375)
EPHA8 (human) = EPHA8 (human) (UniProt P29322)
GRK5 (human) = GRK5 (human) (UniProt P34947)
HIPK3 (human) = HIPK3 (human) (UniProt Q9H422)
INSR (human) = INSR (human) (UniProt P06213)
[1] = target: JAK1 JH1 catalytic (human) (UniProt P23458)
JAK3 JH1 JH2 (human) = JAK3 JH1 JH2 (human) (UniProt P52333)
KIT (human) = KIT (human) (UniProt P10721)
LRRK2 (human) = LRRK2 (human) (UniProt Q5S007)
MAP3K5 (human) = MAP3K5 (human) (UniProt Q99683)
MAP4K2 (human) = MAP4K2 (human) (UniProt Q12851)
MAPKAPK2 (human) = MAPKAPK2 (human) (UniProt P49137)
MATK (human) = MATK (human) (UniProt P42679)
MELK (human) = MELK (human) (UniProt Q14680)
NEK6 (human) = NEK6 (human) (UniProt Q9HC98)
NTRK3 (human) = NTRK3 (human) (UniProt Q16288)
NUAK1 (human) = NUAK1 (human) (UniProt O60285)
PAK7 (human) = PAK7 (human) (UniProt Q9P286)
PHKG2 (human) = PHKG2 (human) (UniProt P15735)
PIM2 (human) = PIM2 (human) (UniProt Q9P1W9)
PRKCH (human) = PRKCH (human) (UniProt P24723)
PRKD1 (human) = PRKD1 (human) (UniProt Q15139)
PRKG1 (human) = PRKG1 (human) (UniProt Q13976)
SGK3 (human) = SGK3 (human) (UniProt Q96BR1)
STK24 (human) = STK24 (human) (UniProt Q9Y6E0)
STK3 (human) = STK3 (human) (UniProt Q13188)
STK39 (human) = STK39 (human) (UniProt Q9UEW8)
SYK (human) = SYK (human) (UniProt P43405)
TNK2 (human) = TNK2 (human) (UniProt Q07912)
TYRO3 (human) = TYRO3 (human) (UniProt Q06418)
YES1 (human) = YES1 (human) (UniProt P07947)

CDK1 CCNA2 (human), sequence (P06493 whole entry, looked up): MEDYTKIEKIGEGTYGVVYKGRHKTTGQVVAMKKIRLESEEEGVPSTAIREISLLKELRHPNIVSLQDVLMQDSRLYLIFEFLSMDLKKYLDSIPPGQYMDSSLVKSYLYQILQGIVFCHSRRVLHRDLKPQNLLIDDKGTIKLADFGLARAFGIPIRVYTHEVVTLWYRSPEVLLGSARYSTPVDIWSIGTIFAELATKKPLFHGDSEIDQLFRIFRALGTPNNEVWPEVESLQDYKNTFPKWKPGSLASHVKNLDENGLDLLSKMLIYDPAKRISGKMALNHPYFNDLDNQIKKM
CDK1 CCNA2 (human), sequence (P20248 whole entry, looked up): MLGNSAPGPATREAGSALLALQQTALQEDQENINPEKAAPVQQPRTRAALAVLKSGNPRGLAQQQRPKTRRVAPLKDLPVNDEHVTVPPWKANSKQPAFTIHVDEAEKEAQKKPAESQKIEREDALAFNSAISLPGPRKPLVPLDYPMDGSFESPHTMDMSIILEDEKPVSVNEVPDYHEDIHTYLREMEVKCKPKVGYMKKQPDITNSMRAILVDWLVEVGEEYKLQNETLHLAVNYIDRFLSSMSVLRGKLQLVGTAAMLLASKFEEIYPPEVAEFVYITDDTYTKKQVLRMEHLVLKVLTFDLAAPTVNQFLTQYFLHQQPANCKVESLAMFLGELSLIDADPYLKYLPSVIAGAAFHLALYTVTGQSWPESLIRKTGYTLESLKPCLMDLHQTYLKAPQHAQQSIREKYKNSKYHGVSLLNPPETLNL
JAK3 JH1 JH2 (human), sequence (P52333 whole entry, looked up): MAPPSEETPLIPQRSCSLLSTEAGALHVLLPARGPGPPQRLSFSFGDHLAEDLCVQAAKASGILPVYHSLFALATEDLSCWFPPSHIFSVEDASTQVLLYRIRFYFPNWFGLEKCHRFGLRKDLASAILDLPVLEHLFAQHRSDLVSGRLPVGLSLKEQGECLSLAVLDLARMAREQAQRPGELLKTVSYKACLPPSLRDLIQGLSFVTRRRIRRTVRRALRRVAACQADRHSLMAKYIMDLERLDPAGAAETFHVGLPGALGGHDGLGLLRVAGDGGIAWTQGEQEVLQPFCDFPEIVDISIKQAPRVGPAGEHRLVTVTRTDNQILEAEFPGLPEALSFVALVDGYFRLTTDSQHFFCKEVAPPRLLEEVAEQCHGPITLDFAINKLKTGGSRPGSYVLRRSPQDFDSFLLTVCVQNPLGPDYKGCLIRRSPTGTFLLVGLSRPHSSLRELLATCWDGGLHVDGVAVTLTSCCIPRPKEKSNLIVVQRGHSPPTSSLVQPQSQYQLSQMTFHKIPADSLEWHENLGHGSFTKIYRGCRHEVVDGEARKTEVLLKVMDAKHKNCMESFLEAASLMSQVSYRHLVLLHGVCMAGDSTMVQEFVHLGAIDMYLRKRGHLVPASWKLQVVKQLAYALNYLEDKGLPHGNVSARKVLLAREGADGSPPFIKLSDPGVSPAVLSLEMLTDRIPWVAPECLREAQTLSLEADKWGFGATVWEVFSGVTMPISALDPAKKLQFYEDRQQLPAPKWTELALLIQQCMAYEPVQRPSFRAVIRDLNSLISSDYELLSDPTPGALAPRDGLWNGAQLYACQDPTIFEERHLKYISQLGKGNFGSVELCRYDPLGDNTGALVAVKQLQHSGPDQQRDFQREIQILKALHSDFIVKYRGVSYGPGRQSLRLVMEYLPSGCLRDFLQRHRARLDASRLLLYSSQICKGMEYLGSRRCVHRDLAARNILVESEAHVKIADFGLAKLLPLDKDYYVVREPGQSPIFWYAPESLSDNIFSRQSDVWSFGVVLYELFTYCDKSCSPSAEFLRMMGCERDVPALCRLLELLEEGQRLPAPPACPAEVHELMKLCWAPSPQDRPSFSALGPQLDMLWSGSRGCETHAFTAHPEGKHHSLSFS
MAP3K5 (human), sequence (Q99683 whole entry, looked up): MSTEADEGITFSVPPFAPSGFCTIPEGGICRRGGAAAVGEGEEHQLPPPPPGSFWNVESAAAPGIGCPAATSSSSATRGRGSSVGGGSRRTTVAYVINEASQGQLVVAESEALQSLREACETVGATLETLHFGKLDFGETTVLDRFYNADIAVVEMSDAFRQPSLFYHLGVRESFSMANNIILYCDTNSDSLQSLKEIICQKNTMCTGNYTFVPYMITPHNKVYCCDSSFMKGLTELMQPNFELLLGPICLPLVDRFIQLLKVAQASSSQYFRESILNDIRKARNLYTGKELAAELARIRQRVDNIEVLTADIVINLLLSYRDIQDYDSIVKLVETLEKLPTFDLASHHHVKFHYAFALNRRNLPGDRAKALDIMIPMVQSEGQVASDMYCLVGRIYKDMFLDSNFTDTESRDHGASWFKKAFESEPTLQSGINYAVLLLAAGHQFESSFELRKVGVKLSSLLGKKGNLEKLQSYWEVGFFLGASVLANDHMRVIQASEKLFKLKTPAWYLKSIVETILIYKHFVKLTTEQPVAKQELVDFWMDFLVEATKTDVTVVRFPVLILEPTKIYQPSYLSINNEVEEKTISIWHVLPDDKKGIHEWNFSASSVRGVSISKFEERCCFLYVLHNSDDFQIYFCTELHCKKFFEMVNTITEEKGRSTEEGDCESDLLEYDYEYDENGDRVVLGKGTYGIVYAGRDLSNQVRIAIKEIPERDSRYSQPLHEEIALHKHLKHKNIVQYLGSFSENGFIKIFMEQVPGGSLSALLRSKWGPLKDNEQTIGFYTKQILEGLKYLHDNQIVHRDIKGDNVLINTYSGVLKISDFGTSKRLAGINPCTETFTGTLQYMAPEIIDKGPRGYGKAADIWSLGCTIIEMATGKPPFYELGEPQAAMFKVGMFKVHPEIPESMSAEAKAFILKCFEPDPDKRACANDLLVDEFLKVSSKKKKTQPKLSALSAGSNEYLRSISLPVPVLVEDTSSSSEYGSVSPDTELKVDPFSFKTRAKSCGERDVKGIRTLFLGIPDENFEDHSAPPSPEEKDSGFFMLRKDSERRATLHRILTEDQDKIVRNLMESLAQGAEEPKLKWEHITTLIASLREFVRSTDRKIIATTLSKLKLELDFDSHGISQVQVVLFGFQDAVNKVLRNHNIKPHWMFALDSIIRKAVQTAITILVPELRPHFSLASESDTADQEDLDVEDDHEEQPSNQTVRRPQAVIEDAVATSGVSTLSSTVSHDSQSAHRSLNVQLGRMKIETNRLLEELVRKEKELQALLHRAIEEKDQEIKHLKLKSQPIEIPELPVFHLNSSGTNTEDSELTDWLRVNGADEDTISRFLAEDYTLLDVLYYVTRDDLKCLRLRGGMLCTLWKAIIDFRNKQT
MATK (human), sequence (P42679 whole entry, looked up): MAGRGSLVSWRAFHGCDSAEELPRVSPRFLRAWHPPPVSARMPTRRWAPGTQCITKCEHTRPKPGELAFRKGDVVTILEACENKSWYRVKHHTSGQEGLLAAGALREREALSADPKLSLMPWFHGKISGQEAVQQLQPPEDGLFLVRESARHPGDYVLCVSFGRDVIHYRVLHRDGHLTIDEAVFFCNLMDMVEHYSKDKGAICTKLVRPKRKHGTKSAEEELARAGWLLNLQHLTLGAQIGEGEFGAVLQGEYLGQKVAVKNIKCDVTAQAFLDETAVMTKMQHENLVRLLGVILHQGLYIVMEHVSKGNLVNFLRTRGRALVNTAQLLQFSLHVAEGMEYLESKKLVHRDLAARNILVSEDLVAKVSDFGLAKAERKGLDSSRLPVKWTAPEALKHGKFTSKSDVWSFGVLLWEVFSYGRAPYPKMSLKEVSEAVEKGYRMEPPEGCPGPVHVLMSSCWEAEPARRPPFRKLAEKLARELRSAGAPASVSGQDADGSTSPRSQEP
PRKG1 (human), sequence (Q13976 whole entry, looked up): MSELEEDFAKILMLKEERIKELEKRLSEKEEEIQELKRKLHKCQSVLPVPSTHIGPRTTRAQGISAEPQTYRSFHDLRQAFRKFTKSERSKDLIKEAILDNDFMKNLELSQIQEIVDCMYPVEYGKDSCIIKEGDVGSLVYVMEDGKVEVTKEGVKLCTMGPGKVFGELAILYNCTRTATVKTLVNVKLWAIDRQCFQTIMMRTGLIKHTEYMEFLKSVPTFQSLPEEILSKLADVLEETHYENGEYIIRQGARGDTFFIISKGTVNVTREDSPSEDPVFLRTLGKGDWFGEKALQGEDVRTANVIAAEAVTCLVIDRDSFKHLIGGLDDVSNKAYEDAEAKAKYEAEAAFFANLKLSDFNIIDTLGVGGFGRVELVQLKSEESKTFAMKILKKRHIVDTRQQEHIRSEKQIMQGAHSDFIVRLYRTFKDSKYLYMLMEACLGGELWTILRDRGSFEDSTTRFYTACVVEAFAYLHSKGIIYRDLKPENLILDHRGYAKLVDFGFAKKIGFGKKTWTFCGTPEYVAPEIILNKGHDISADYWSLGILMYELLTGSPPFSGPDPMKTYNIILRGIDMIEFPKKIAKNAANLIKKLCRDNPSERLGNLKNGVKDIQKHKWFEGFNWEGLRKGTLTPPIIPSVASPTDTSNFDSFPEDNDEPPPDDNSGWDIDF
STK24 (human), sequence (Q9Y6E0 whole entry, looked up): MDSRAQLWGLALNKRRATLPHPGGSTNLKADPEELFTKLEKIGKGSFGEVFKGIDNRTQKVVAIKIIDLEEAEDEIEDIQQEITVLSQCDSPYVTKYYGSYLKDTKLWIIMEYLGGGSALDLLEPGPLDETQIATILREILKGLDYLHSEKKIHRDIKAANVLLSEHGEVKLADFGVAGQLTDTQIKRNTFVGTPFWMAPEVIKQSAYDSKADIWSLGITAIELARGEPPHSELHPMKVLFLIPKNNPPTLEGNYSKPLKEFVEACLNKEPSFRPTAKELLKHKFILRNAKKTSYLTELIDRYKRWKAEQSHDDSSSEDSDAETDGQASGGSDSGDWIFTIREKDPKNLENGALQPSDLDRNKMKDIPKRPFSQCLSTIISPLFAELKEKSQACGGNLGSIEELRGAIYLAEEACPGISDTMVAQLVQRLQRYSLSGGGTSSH

O=C1NC(=O)c2c1c1c3ccccc3[nH]c1n1cncc21
residual activity (ADRBK2 (human)): 109% | residual activity (AURKB (human)): 25.2% | residual activity (BMX (human)): 91.7% | residual activity (CDK1 CCNA2 (human)): 94.8% | residual activity (CDK9 CCNK (human)): 83.8% | residual activity (CDK9 CCNT1 (human)): 82.9% | residual activity (CHEK2 (human)): 21.2% | residual activity (CSK (human)): 83.3% | residual activity (DAPK1 (human)): 26.6% | residual activity (DMPK (human)): 101% | residual activity (EPHA4 (human)): 98.6% | residual activity (EPHA7 (human)): 78.8% | residual activity (EPHA8 (human)): 97.5% | residual activity (GRK5 (human)): 94.4% | residual activity (HIPK3 (human)): 66.9% | residual activity (INSR (human)): 17.9% | residual activity [1]: 102% | residual activity (JAK3 JH1 JH2 (human)): 140% | residual activity (KIT (human)): 38% | residual activity (LRRK2 (human)): 61.3% | residual activity (MAP3K5 (human)): 97.8% | residual activity (MAP4K2 (human)): 51.8% | residual activity (MAPKAPK2 (human)): 98.9% | residual activity (MATK (human)): 99.8% | residual activity (MELK (human)): 32.6% | residual activity (NEK6 (human)): 88.7% | residual activity (NTRK3 (human)): 26.1% | residual activity (NUAK1 (human)): 12.1% | residual activity (PAK7 (human)): 80% | residual activity (PHKG2 (human)): 108% | residual activity (PIM2 (human)): 34.4% | residual activity (PRKCH (human)): 74.8% | residual activity (PRKD1 (human)): 61.4% | residual activity (PRKG1 (human)): 85.9% and 93.8% | residual activity (SGK3 (human)): 111% | residual activity (STK24 (human)): 48.4% | residual activity (STK3 (human)): 41% | residual activity (STK39 (human)): 104% | residual activity (SYK (human)): 84.9% | residual activity (TNK2 (human)): 41.3% | residual activity (TYRO3 (human)): 88.8% | residual activity (YES1 (human)): 79.9%

c1ccc2c(-c3ccncc3)c[nH]c2c1
residual activity (ADRBK2 (human)): 95.4% | residual activity (AURKB (human)): 95.9% | residual activity (BMX (human)): 95.8% | residual activity (CDK1 CCNA2 (human)): 90.6% | residual activity (CDK9 CCNK (human)): 91.2% | residual activity (CDK9 CCNT1 (human)): 75.2% | residual activity (CHEK2 (human)): 99.3% | residual activity (CSK (human)): 107% | residual activity (DAPK1 (human)): 97.7% | residual activity (DMPK (human)): 109% | residual activity (EPHA4 (human)): 108% | residual activity (EPHA7 (human)): 98.2% | residual activity (EPHA8 (human)): 101% | residual activity (GRK5 (human)): 99.2% | residual activity (HIPK3 (human)): 107% | residual activity (INSR (human)): 90.5% | residual activity [1]: 109% | residual activity (JAK3 JH1 JH2 (human)): 95.3% | residual activity (KIT (human)): 93.2% | residual activity (LRRK2 (human)): 92.8% | residual activity (MAP3K5 (human)): 109% | residual activity (MAP4K2 (human)): 101% | residual activity (MAPKAPK2 (human)): 101% | residual activity (MATK (human)): 93.9% | residual activity (MELK (human)): 102% | residual activity (NEK6 (human)): 93.4% | residual activity (NTRK3 (human)): 100% | residual activity (NUAK1 (human)): 94.8% | residual activity (PAK7 (human)): 93.8% | residual activity (PHKG2 (human)): 101% | residual activity (PIM2 (human)): 105% | residual activity (PRKCH (human)): 84.9% | residual activity (PRKD1 (human)): 95.5% | residual activity (PRKG1 (human)): 64.8% and 77.7% | residual activity (SGK3 (human)): 92.8% | residual activity (STK24 (human)): 93.5% | residual activity (STK3 (human)): 112% | residual activity (STK39 (human)): 99.8% | residual activity (SYK (human)): 98.6% | residual activity (TNK2 (human)): 96.1% | residual activity (TYRO3 (human)): 98.1% | residual activity (YES1 (human)): 97.1%

CS(=O)(=O)CCNCc1ccc(-c2ccc3ncnc(Nc4ccc(OCc5cccc(F)c5)c(Cl)c4)c3c2)o1
residual activity (ADRBK2 (human)): 96.7% | residual activity (AURKB (human)): 98.4% | residual activity (BMX (human)): 105% | residual activity (CDK1 CCNA2 (human)): 101% | residual activity (CDK9 CCNK (human)): 103% | residual activity (CDK9 CCNT1 (human)): 85.2% | residual activity (CHEK2 (human)): 96.8% | residual activity (CSK (human)): 106% | residual activity (DAPK1 (human)): 107% | residual activity (DMPK (human)): 94.7% | residual activity (EPHA4 (human)): 101% | residual activity (EPHA7 (human)): 95.6% | residual activity (EPHA8 (human)): 99.5% | residual activity (GRK5 (human)): 97.2% | residual activity (HIPK3 (human)): 99.1% | residual activity (INSR (human)): 105% | residual activity [1]: 98% | residual activity (JAK3 JH1 JH2 (human)): 96.2% | residual activity (KIT (human)): 98.4% | residual activity (LRRK2 (human)): 76.9% | residual activity (MAP3K5 (human)): 105% | residual activity (MAP4K2 (human)): 104% | residual activity (MAPKAPK2 (human)): 94.7% | residual activity (MATK (human)): 75.9% | residual activity (MELK (human)): 88.5% | residual activity (NEK6 (human)): 93.7% | residual activity (NTRK3 (human)): 103% | residual activity (NUAK1 (human)): 108% | residual activity (PAK7 (human)): 98.5% | residual activity (PHKG2 (human)): 99.5% | residual activity (PIM2 (human)): 102% | residual activity (PRKCH (human)): 110% | residual activity (PRKD1 (human)): 99.4% | residual activity (PRKG1 (human)): 95.4% and 99.7% | residual activity (SGK3 (human)): 102% | residual activity (STK24 (human)): 106% | residual activity (STK3 (human)): 93.7% | residual activity (STK39 (human)): 100% | residual activity (SYK (human)): 113% | residual activity (TNK2 (human)): 97.5% | residual activity (TYRO3 (human)): 98.9% | residual activity (YES1 (human)): 84.7%
